Reference: paper PMC9926489, “Chemical Optimization of Selective Pseudomonas aeruginosa LasB Elastase Inhibitors and Their Impact on LasB-Mediated Activation of IL-1β in Cellular and Animal Infection Models” (ACS Infectious Diseases, 2023)
Values after ≈ are worked out from the molar mass of the structure shown.

Experiments:
[1] = target: T1, purified LasB (Pseudomonas aeruginosa, UniProt P14756); assay: LasB inhibition, fluorimetric Abz-AGLA-Nba hydrolysis assay with purified LasB; assay type: biochemical
T1 construct: The mature LasB protein is a 33 kDa metalloprotease, which is secreted from P. aeruginosa; host or cells: P. aeruginosa PAO1 (native secretion, culture supernatant)
T1 sequence (P14756 198-498): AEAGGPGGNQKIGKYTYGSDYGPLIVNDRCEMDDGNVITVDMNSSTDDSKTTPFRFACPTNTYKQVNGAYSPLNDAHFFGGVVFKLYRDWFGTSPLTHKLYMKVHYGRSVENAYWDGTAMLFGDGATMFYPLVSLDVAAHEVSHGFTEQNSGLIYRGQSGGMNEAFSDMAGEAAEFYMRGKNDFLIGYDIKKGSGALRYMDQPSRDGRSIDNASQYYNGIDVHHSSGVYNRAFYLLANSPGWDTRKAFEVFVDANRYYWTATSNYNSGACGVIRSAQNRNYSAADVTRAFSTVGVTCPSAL
Description: (§1) This was chosen as the starting point for a medicinal chemistry-driven lead optimization program aiming to improve potency and solubility whilst retaining selectivity against host metalloenzymes. All synthesized compounds were initially assessed in a fluorimetric assay measuring hydrolysis of a fluorogenic substrate Abz-Ala-Gly-Leu-Ala-4-nitrobenzylamide (Abz-AGLA-Nba) by purified LasB and IC50 values determined (Tables 1 and 2). Inhibition of elastin hydrolytic activity was confirmed using an orthogonal assay measuring hydrolysis of Elastin Congo Red (ECR) complex by LasB prepared directly from a P. aeruginosa culture supernatant (Tables 1 and 2). […] Aqueous solubility was determined for most compounds (Tables 1 and 2).
Native LasB protein was purified from culture supernatants of P. aeruginosa strain PAO1 (Charles River Laboratories, U.K.). Briefly, the sample was concentrated by ultrafiltration and the protein was purified by chromatography using an anion exchange (pH 8.5) step followed by gel filtration. This procedure yielded an enzyme preparation (0.8 mg/mL) of >98% purity. The enzyme was stored at −80 °C.
LasB inhibition assays were performed using purified LasB enzyme (1 ng/well) for compound screening or using culture supernatants (prepared as described in the ECR assay) for testing LasB variants. Hydrolysis of the fluorogenic peptide substrate 2-aminobenzoyl-Ala-Gly-Leu-Ala-4-nitrobenzylamide (Abz-AGLA-Nba; Peptide International) in 50 mM Tris-HCl (pH 7.4), supplemented with 2.5 mM CaCl2 was followed using an Envision microplate reader (PerkinElmer) at 315 nm excitation and 430 nm emission. For screening of lead compounds, assays were performed in the presence of 0.01% Triton X-100 with a range of inhibitor concentrations from 0.003 to 3.2 μM. IC50 values were determined from Hill plots using Dotmatics Studies ELN software. For the mechanism of inhibition studies, hydrolysis rates were measured in the presence of variable concentrations of substrate and inhibitor, and the inhibition constant (Ki) was determined using Dixon plot analysis.[31]

[2] = target: T2, LasB (P. aeruginosa PAO1 culture supernatant) (Pseudomonas aeruginosa, UniProt P14756); assay: Elastin Congo Red (ECR) assay, elastin hydrolysis by dialyzed PAO1 culture supernatant; assay type: biochemical; conditions: 25 μM inhibitor
T2 construct: The mature LasB protein is a 33 kDa metalloprotease, which is secreted from P. aeruginosa; endogenous in cells; host or cells: P. aeruginosa PAO1 culture supernatant, filtered and dialyzed
T2 sequence (P14756 198-498): as above
Description: as §1
Inhibition of elastin hydrolysis by native LasB, secreted in P. aeruginosa culture supernatants, was measured using the Elastin Congo Red (ECR) assay. Culture supernatants from P. aeruginosa strain PAO1, grown in LB medium at 37 °C for 24 h, were filtered and dialyzed against 50 mM Tris-HCl pH 7.4, 2.5 mM CaCl2 solution at 4 °C and supplemented with 0.01%Triton X-100, 10 mg/mL ECR (Sigma) and 25 μM inhibitor compounds. The reaction mixture was incubated for 16 h at 37 °C with shaking before centrifugation and recovery of the supernatant and measurement of solubilized congo red by absorbance (OD495) using an EnSight multimode plate reader (PerkinElmer).

[3] = Thermodynamic solubility in PBS (pH 7.4); assay type: physicochemical; conditions: aqueous buffer, thermodynamic from solid
[4] = target: T3, secreted LasB in P. aeruginosa PAO1-infected THP-1 macrophages (Pseudomonas aeruginosa, UniProt P14756); assay: LasB activity (Sub115 hydrolysis) in supernatants of P. aeruginosa-infected THP-1 macrophages; assay type: cell-based; conditions: infected THP-1 cells, 5 μM
T3 construct: The mature LasB protein is a 33 kDa metalloprotease, which is secreted from P. aeruginosa; endogenous in cells; host or cells: P. aeruginosa PAO1 infecting human THP-1 macrophages (MOI 10:1); supernatant after 2 h
T3 sequence (P14756 198-498): as above
Protocol: (§2) Further to showing in vitro inhibition of LasB-mediated pro-IL-1β proteolysis, experiments were performed to determine the effect of compounds 12 and 16 on IL-1β activation and functionality in human macrophage cell cultures infected with P. aeruginosa PAO1, or an isogenic lasB deletion mutant thereof (ΔlasB). In these experiments, the levels of LasB activity in culture supernatants were measured via hydrolysis of the Sub115 fluorescent peptide, while the effect of LasB activity on IL-1β activation (functionality) was measured using a luciferase reporter cell line sensitive to IL-1β induction (Figure 3).
Human THP-1 macrophages were cultured by conventional methods then, pre-infection, culture media were replaced by RPMI lacking phenol red and antibiotics. Compounds VX-765 (caspase-1 inhibitor, developed by Vertex) and/or LasB inhibitors were added, immediately followed by inoculation with P. aeruginosa PAO1 or an isogenic lasB deletion mutant (ΔlasB), previously grown in Luria broth to late exponential phase (OD600 = 1.2) then washed and diluted in PBS, at a multiplicity of infection (MOI) of 10 to 1. After 2 h post-infection, 50 μL aliquots of supernatant were removed and used to quantitate both LasB activity and IL-1β functionality. To determine LasB activity, 50 μL of supernatant was added to Sub115 IL-1β peptide and hydrolysis of Sub115 was monitored spectrophotometrically with excitation at 355 nm and emission at 450 nm, as described above. Results were expressed as relative fluorescence units (RFU).
In the first variation, experimental infections were performed with P. aeruginosa PAO1 and ΔlasB bacteria incubated with varying quantities of inhibitor at final concentrations ranging from 0.5 to 8 μM. In the second, cells were treated and infected in the same manner and also treated with 5 μM VX-765 to provide a control for IL-1β activation by the inflammasome pathway.

[5] = test system: IL-1β activation; assay: IL-1β activation in P. aeruginosa-infected THP-1 macrophages (HEK IL-1R-lux reporter assay); assay type: cell-based, human; conditions: infected THP-1 cells, 5 μM
Protocol: as §2
Human THP-1 macrophages were cultured by conventional methods then, pre-infection, culture media were replaced by RPMI lacking phenol red and antibiotics. […] After 2 h post-infection, 50 μL aliquots of supernatant were removed and used to quantitate both LasB activity and IL-1β functionality. To determine LasB activity, 50 μL of supernatant was added to Sub115 IL-1β peptide and hydrolysis of Sub115 was monitored spectrophotometrically with excitation at 355 nm and emission at 450 nm, as described above. Results were expressed as relative fluorescence units (RFU).
To determine IL-1β functionality, generation of an IL-1 signal was quantified by adding 50 μL of supernatant to HEK IL-1R-lux reporter cells cultured in RPMI supplemented with 5% heat-inactivated FBS, 200 μg/mL penicillin/streptomycin, 200 μg/mL hygromycin, 100 μg/mL zeomycin, and 0.5 μg/mL puromycin. No bacteria survived in this antibiotic condition; 18 h post-treatment, IL-1β-dependent luciferase induction was assayed by luminescence measured with D-luciferin substrate (Steady-Luc, Biotium) on a multimode reader (PerkinElmer) and expressed as relative luminescence units (RU), as previously described.[16]
In the first variation, experimental infections were performed with P. aeruginosa PAO1 and ΔlasB bacteria incubated with varying quantities of inhibitor at final concentrations ranging from 0.5 to 8 μM. […]

| SMILES | IC50 [1] [nM] | Elastin hydrolysis @ 25 μM (% inh) [2] [% inh] | solubility [3] [µg/mL] | effect on LasB activity [4] | effect on IL-1β activation [5] |
| --- | --- | --- | --- | --- | --- |
| O=C(O)CC1(C(=O)NCc2nc3ccccc3s2)Cc2ccccc2C1 [Compound 1] | 410 | 69 | 580 (≈ 1.58 mM) |  |  |
| O=C(O)CC1(C(=O)NCc2nc3cc(Cl)ccc3s2)Cc2ccccc2C1 [Compound 2] | 350 | 58 |  |  |  |
| COc1ccc2sc(CNC(=O)C3(CC(=O)O)Cc4ccccc4C3)nc2c1 [Compound 3] | 150 | 64 |  |  |  |
| COc1cc2nc(CNC(=O)C3(CC(=O)O)Cc4ccccc4C3)sc2cc1OC [Compound 4] | 20 | 82 | 2000 (≈ 4.69 mM) |  |  |
| O=C(O)CC1(C(=O)NCc2nc3cc4c(cc3s2)OCO4)Cc2ccccc2C1 [Compound 5] | 120 | 75 | 2000 (≈ 4.87 mM) |  |  |
| CN1CCN(c2ccc3nc(CNC(=O)C4(CC(=O)O)Cc5ccccc5C4)sc3c2)CC1 [Compound 6] | 1570 | 39 | 3400 (≈ 7.32 mM) |  |  |
| CN(C)CCOc1ccc2sc(CNC(=O)C3(CC(=O)O)Cc4ccccc4C3)nc2c1 [Compound 7] | 670 | 42 | 4200 (≈ 9.26 mM) |  |  |
| C[N+]1(C)CCN(c2ccc3nc(CNC(=O)C4(CC(=O)O)Cc5ccccc5C4)sc3c2)CC1 [Compound 8] | 1350 | 33 | 18700 |  |  |
| C[N+](C)(C)CCOc1ccc2sc(CNC(=O)C3(CC(=O)O)Cc4ccccc4C3)nc2c1 [Compound 9] | 820 | 40 | 18100 |  |  |
| O=C(O)CC1(C(=O)NCc2nc3ccccc3s2)Cc2cc(F)c(F)cc2C1 [Compound 10] | 140 | 66 | 600 (≈ 1.49 mM) |  |  |
| COc1cc2sc(CNC(=O)C3(CC(=O)O)Cc4ccccc4C3)nc2cc1OCCCN(C)C [Compound 11] | 80 | 69 |  |  |  |
| COc1cc2sc(CNC(=O)C3(CC(=O)O)Cc4ccccc4C3)nc2cc1OCC1CC[N+](C)(C)CC1 [Compound 13] | 130 | 66 | 15800 |  |  |
| COc1cc2sc(CNC(=O)C3(CC(=O)O)Cc4cc(F)c(F)cc4C3)nc2cc1OCC1CC[N+](C)(C)CC1 [Compound 14] | 90 | 72 | 17800 |  |  |
| COc1cc2sc(CNC(=O)C3(CC(=O)O)Cc4ccccc4C3)nc2cc1OCCC[N+](C)(CCO)CCO [Compound 15] | 190 | 69 | 17600 |  |  |
| CCO[C@@H]1OC(=O)C[C@@H]1NC(=O)[C@@H]1CCCN1C(=O)[C@@H](NC(=O)c1ccc(N)c(Cl)c1)C(C)(C)C [VX-765, reference compound] |  |  |  | no effect | reduced IL-1β activation |
